Laboratory results published in US10407467B2, “Polymyxin derivatives and their use in combination therapy together with different antibiotics” (priority 2013, dated 2019).
Structures can show the parent of a compound that is named as a salt. Bridge positions count the residues as written; N and C are the ends. Square brackets hold non-standard residues; d marks the D form. Peptide text beside a SMILES is read from it. * marks the point of attachment. ξ: configuration not given here. X17 = CN1CCN(c2ccc(C(=O)*)cc2)CC1; Thr(3ξ) = CC(O)[C@H](N)C(=O)O; X13 = O=C(CC[C@@H]1CCCN1)*; X9 = CC(C)[C@H](N)CCC(=O)*; Dab = NCC[C@H](N)C(=O)O; X14 = CC(C)(N)CCC(=O)*; Inp = O=C(O)C1CCNCC1; βAla = NCCC(=O)O

How the values were obtained:
Format in all cases: cell-based
[1] = test system: Klebsiella pneumoniae; experiment: MIC, compound in combination with a second agent (broth microdilution); conditions: 1:1 (wt:wt) combination with Rifampicin; for MIC K. pneumoniae NCTC 13438: strain NCTC 13438; for MIC K. pneumoniae ATCC 4352: strain ATCC 4352
In short: (§1)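 MIC values express combined concentration of test compound plus partner agent such as rifampicin, mixed at equal mass (1:1 w/w, salt-form weight). Direct colony suspensions at 0.5 McFarland, up to four strains per species, tested in duplicate; >2-fold disagreement invalid, otherwise lower value or mode of repeats reported.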

[2] = test system: Escherichia coli; experiment: as above; conditions: 1:1 (wt:wt) combination with Rifampicin; for MIC E. coli NCTC9001: strain NCTC9001
In short: as §1

[3] = test system: Acinetobacter baumannii; experiment: as above; conditions: 1:1 (wt:wt) combination with Rifampicin, MIC = total drug concentration
In short: as §1

[4] = test system: Pseudomonas aeruginosa; experiment: as above; conditions: 1:1 (wt:wt) combination with Rifampicin
In short: as §1

[5] = test system: Klebsiella pneumoniae; experiment: MIC, sole activity (no second agent); conditions: in the absence of Rifampicin; for MIC K. pneumoniae ATCC 4352: strain ATCC 4352; for MIC K. pneumoniae ATCC-BAA2146: strain ATCC-BAA2146; for MIC K. pneumoniae CCUG-59348: strain CCUG-59348; for MIC K. pneumoniae NCTC-13438: strain NCTC-13438
In short: (§2)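 Up to four strains per species were tested in cation-adjusted Mueller-Hinton broth, with inoculum made by direct colony suspension from 18-24 hour Mueller-Hinton agar plates, adjusted to 0.5 McFarland. Duplicates differing by under 2-fold gave the lower value; greater spread voided the run. Values are relative to Polymyxin B.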

[6] = test system: Escherichia coli; experiment: MIC, sole activity (no second agent); conditions: in the absence of Rifampicin; for MIC E. coli ATCC25922: strain ATCC25922; for MIC E. coli NCTC9001: strain NCTC9001
In short: as §2

[7] = test system: Acinetobacter baumannii; experiment: MIC, sole activity (no second agent); conditions: in the absence of Rifampicin; for MIC A. baumannii ATCCBAA-747: strain ATCCBAA-747; for MIC A. baumannii NCTC 13423: strain NCTC13423
In short: as §2

[8] = test system: Pseudomonas aeruginosa; experiment: MIC, sole activity (no second agent); conditions: in the absence of Rifampicin; for MIC P. aeruginosa ATCC 27853: strain ATCC27853; for MIC P. aeruginosa ATCCCRM-9027: strain ATCCCRM-9027
In short: as §2

[9] = MIC = total drug concentration, strain ATCC-BAA-2146
[10] = MIC = total drug concentration, strain CCUG-59348
[11] = MIC = total drug concentration, strain ATCC25922
[12] = MIC = total drug concentration, strain ATCC 27853
[13] = MIC = total drug concentration, strain CCUG 59626
[14] = MIC is total drug concentration

Row | SMILES | MIC K. pneumoniae ATCC-BAA-2146 [1, 9] | MIC K. pneumoniae CCUG-59348 [1, 10] | MIC K. pneumoniae NCTC 13438 ([1]; MIC = total drug concentration) | MIC E. coli ATCC25922 [2, 11] | MIC E. coli NCTC9001 ([2]; MIC = total drug concentration) | MIC P. aeruginosa ATCC 27853 [4, 12] | MIC P. aeruginosa CCUG 59626 [4, 13] | MIC K. pneumoniae ATCC 4352 [5] | MIC K. pneumoniae ATCC-BAA2146 [5] | MIC K. pneumoniae CCUG-59348 [5] | MIC K. pneumoniae NCTC-13438 [5] | MIC E. coli ATCC25922 [6] | MIC P. aeruginosa ATCC 27853 [8] | MIC E. coli NCTC9001 [6] | also measured
1 | CC(C)C[C@@H]1NC(=O)[C@@H](CC(C)C)NC(=O)[C@H](CCN)NC(=O)[C@@H](NC(=O)[C@H](CCN)NC(=O)[C@@H](NC(=O)C(O)C2CCCCC2)C(C)O)CCNC(=O)[C@H](C(C)O)NC(=O)[C@H](CCN)NC(=O)[C@H](CCN)NC1=O (single isomer, unassigned; isomer 1) [Example 31, 2(RS)-(2-Hydroxy-2-cyclohexyl)ethanoyl polymyxin E nonapeptide, TFA salt. Isomer 1] | 2 micrograms/mL | 2 micrograms/mL | 1 micrograms/mL | 0.25 micrograms/mL | 0.5 micrograms/mL | 0.5 micrograms/mL | 0.25 micrograms/mL | – | – | – | – | – | – | – | MIC A. baumannii ATCC BAA-747 ([3]; strain ATCC BAA-747): 0.25 micrograms/mL; MIC A. baumannii CCUG57249 ([3]; strain CCUG57249): 0.25 micrograms/mL; MIC A. baumannii NCTC 13423 ([3]; strain NCTC 13423): 0.25 micrograms/mL; MIC A. baumannii NCTC 13424 ([3]; strain NCTC 13424): 0.5 micrograms/mL; MIC P. aeruginosa ATCC CRM-9027 ([4]; MIC = total drug concentration, strain ATCC CRM-9027): 0.5 micrograms/mL; MIC P. aeruginosa ATCC-47 ([4]; MIC = total drug concentration, strain ATCC-47): 0.5 micrograms/mL
2 | CC(C)C[C@@H]1NC(=O)[C@@H](Cc2ccccc2)NC(=O)[C@H](CCN)NC(=O)[C@@H](NC(=O)[C@H](CCN)NC(=O)[C@@H](NC(=O)CCN)C(C)O)CCNC(=O)[C@H](C(C)O)NC(=O)[C@H](CCN)NC(=O)[C@H](CCN)NC1=O (stereo partly drawn) [Example 3, 3-Aminopropanoyl polymyxin B nonapeptide] (H-[βAla][Thr(3ξ)][Dab][Dab][Dab][dF]L[Dab][Dab][Thr(3ξ)]; lactam 4-C) | 1 micrograms/mL | 8 micrograms/mL | 2 micrograms/mL | – | 0.25 micrograms/mL | – | – | 0.125 micrograms/mL | >32 micrograms/mL | >32 micrograms/mL | >32 micrograms/mL | 2 micrograms/mL | 0.125 micrograms/mL | – | MIC A. baumannii ATCCBAA-747 [7]: 1 micrograms/mL; MIC A. baumannii NCTC 13423 [7]: 1 micrograms/mL; MIC P. aeruginosa ATCCCRM-9027 [8]: 0.25 micrograms/mL
3 | CC(C)C[C@@H]1NC(=O)[C@@H](Cc2ccccc2)NC(=O)[C@H](CCN)NC(=O)[C@@H](NC(=O)[C@H](CCN)NC(=O)[C@@H](NC(=O)CCC(C)(C)N)C(C)O)CCNC(=O)[C@H](C(C)O)NC(=O)[C@H](CCN)NC(=O)[C@H](CCN)NC1=O (stereo partly drawn) [Example 21, 4-Amino-4-methyl pentanoyl polymyxin B nonapeptide] (X14-[Thr(3ξ)][Dab][Dab][Dab][dF]L[Dab][Dab][Thr(3ξ)]; lactam 3-C) | 0.5 micrograms/mL | 8 micrograms/mL | 0.5 micrograms/mL | – | 0.25 micrograms/mL | – | – | 0.25 micrograms/mL | >32 micrograms/mL | >32 micrograms/mL | >32 micrograms/mL | 4 micrograms/mL | <0.06 micrograms/mL | >32 micrograms/mL | –
4 | CC(C)C[C@@H]1NC(=O)[C@@H](Cc2ccccc2)NC(=O)[C@H](CCN)NC(=O)[C@@H](NC(=O)[C@H](CCN)NC(=O)[C@@H](NC(=O)CC[C@@H](N)C(C)C)C(C)O)CCNC(=O)[C@H](C(C)O)NC(=O)[C@H](CCN)NC(=O)[C@H](CCN)NC1=O (stereo partly drawn) [Example 22, 4(R)-Amino-5-methylhexanoyl polymyxin B nonapeptide] (X9-[Thr(3ξ)][Dab][Dab][Dab][dF]L[Dab][Dab][Thr(3ξ)]; lactam 3-C) | 0.25 micrograms/mL | 4 micrograms/mL | 0.5 micrograms/mL | – | 0.125 micrograms/mL | – | – | 0.5 micrograms/mL | >32 micrograms/mL | >32 micrograms/mL | >32 micrograms/mL | 8 micrograms/mL | 0.125 micrograms/mL | >32 micrograms/mL | MIC A. baumannii ATCCBAA-747 [7]: 1 micrograms/mL; MIC A. baumannii NCTC 13423 [7]: 0.5 micrograms/mL; MIC P. aeruginosa ATCCCRM-9027 [8]: 0.5 micrograms/mL
5 | CC(C)C[C@@H]1NC(=O)[C@@H](Cc2ccccc2)NC(=O)[C@H](CCN)NC(=O)[C@@H](NC(=O)[C@H](CCN)NC(=O)[C@@H](NC(=O)CC[C@@H]2CCCN2)C(C)O)CCNC(=O)[C@H](C(C)O)NC(=O)[C@H](CCN)NC(=O)[C@H](CCN)NC1=O (stereo partly drawn) [Example 23, 3-(S)-(1-pyrrolidin-2-yl)-propionyl polymyxin B nonapeptide] (X13-[Thr(3ξ)][Dab][Dab][Dab][dF]L[Dab][Dab][Thr(3ξ)]; lactam 3-C) | 1 micrograms/mL | 8 micrograms/mL | 1 micrograms/mL | – | 0.25 micrograms/mL | – | – | 1 micrograms/mL | >32 micrograms/mL | >32 micrograms/mL | >32 micrograms/mL | 16 micrograms/mL | 0.125 micrograms/mL | >32 micrograms/mL | –
6 | CC(C)C[C@@H]1NC(=O)[C@@H](Cc2ccccc2)NC(=O)[C@H](CCN)NC(=O)[C@@H](NC(=O)[C@H](CCN)NC(=O)[C@@H](NC(=O)[C@H](CCN)NC(=O)C2CCNCC2)C(C)O)CCNC(=O)[C@H](C(C)O)NC(=O)[C@H](CCN)NC(=O)[C@H](CCN)NC1=O (stereo partly drawn) [Example 53, Piperidin-4-yl carbonyl-polymyxin B decapeptide, trifluoroacetate salt] (H-[Inp][Dab][Thr(3ξ)][Dab][Dab][Dab][dF]L[Dab][Dab][Thr(3ξ)]; lactam 5-C) | 1 micrograms/mL | 4 micrograms/mL | – | 0.125 micrograms/mL | – | ≤0.06 micrograms/mL | ≤0.06 micrograms/mL | – | – | – | – | – | – | – | MIC K. pneumoniae ATCC 4352 ([1]; MIC = total drug concentration): ≤0.06 micrograms/mL
7 | CC(C)C[C@@H]1NC(=O)[C@@H](Cc2ccccc2)NC(=O)[C@H](CCN)NC(=O)[C@@H](NC(=O)[C@H](CCN)NC(=O)[C@@H](NC(=O)[C@H](CCCCN)NC(=O)C2CCNCC2)C(C)O)CCNC(=O)[C@H](C(C)O)NC(=O)[C@H](CCN)NC(=O)[C@H](CCN)NC1=O (stereo partly drawn) [Example 54, Piperidin-4-yl carbonyl-L-Lys-polymyxin B nonapeptide, trifluoroacetate salt] (H-[Inp]K[Thr(3ξ)][Dab][Dab][Dab][dF]L[Dab][Dab][Thr(3ξ)]; lactam 5-C) | 1 micrograms/mL | 4 micrograms/mL | – | 0.25 micrograms/mL | – | ≤0.06 micrograms/mL | ≤0.06 micrograms/mL | – | – | – | – | – | – | – | MIC K. pneumoniae ATCC 4352 ([1]; MIC = total drug concentration): 0.125 micrograms/mL
8 | CC(C)C[C@@H]1NC(=O)[C@@H](Cc2ccccc2)NC(=O)[C@H](CCN)NC(=O)[C@@H](NC(=O)[C@H](CCN)NC(=O)[C@@H](NC(=O)c2ccc(N3CCN(C)CC3)cc2)C(C)O)CCNC(=O)[C@H](C(C)O)NC(=O)[C@H](CCN)NC(=O)[C@H](CCN)NC1=O (stereo partly drawn) [Example 55, 4-(4-Methyl-piperazin-1-yl) benzoyl polymyxin B nonapeptide] (X17-[Thr(3ξ)][Dab][Dab][Dab][dF]L[Dab][Dab][Thr(3ξ)]; lactam 3-C) | 1 micrograms/mL | 4 micrograms/mL | – | 0.125 micrograms/mL | – | 0.25 micrograms/mL | 0.25 micrograms/mL | – | – | – | – | – | – | – | MIC K. pneumoniae ATCC-BAA-2146 [1, 14]: 1 micrograms/mL; MIC K. pneumoniae CCUG-59348 [1, 14]: 4 micrograms/mL; MIC E. coli ATCC25922 [2, 14]: 0.125 micrograms/mL; MIC P. aeruginosa ATCC 27853 [4, 14]: 0.25 micrograms/mL; MIC P. aeruginosa CCUG 59626 [4, 14]: 0.25 micrograms/mL
